Measured values taken from patent US20130331417A1, “INSECTICIDAL MIXTURES WITH IMPROVED PROPERTIES” (BAYER INTELLECTUAL PROPERTY GMBH, priority 2010, published 2013).

Key:
Myzus persicae = Myzus persicae test, oil seed rape seed treatment; assay type: in vivo; conditions: after 2 days
Procedure: (§1) The expected efficacy of a given combination of two compounds is calculated as follows (see Colby, S .R., “Calculating Synergistic and antagonistic Responses of Herbicide Combinations”, Weeds 15, pp. 20-22, 1967):
(§2) If the observed insecticidal efficacy of the combination is higher than the one calculated as “E”, then the combination of the two compounds is more than additive, i.e., there is a synergistic effect.
(§3) If not mentioned otherwise, the crystalline modification I of 4-{[(6-chloropyrid-3-yl)methyl](methyl)amino} furan-2(5H)-one has been prepared as a water-dispersible or water-soluble powder in an active ingredient concentration of 70% (wt/wt) involving the following formulation auxiliaries, whereas the amount of auxiliaries sums up to 100 wt. %:
(§4) The auxiliaries were mixed with the appropriate amount of the crystalline modification I of 4-{[(6-chloropyrid-3-yl)methyl](methyl)amino} furan-2(5H)-one. There is no water or solvent added. To enable the dry mixture to stick on the seed, the seed were treated with a minimal amount of water, namely 30 μl for 2 g canola seeds, and 800 μl für 20 g cotton seeds.
Seeds of Oil seed rape were treated with the compounds or mixtures and sown. Ca. […]
After the specified period of time, the mortality in % is determined 100% means that all the aphids have been killed; 0% means that none of the aphids have been killed.

Aphis gossypii = Aphis gossypii test, cotton seed treatment; assay type: in vivo
Procedure: as §1, §2, §3, §4
Cotton seeds were treated with the compounds or mixtures and sown. 10 days after germination the plants were infested with a mixed population of the cotton aphid (Aphis gossypii). After the specified period of time, the mortality in % is determined 100% means that all the aphids have been killed; 0% means that none of the aphids have been killed.

Work on `C/C(=N\C#N)N(C)Cc1ccc(Cl)nc1` [Acetamiprid] yielded a Mortality (Myzus persicae; 1 mg ai/seed) of 0%.

Work on `CCOC(=O)OC1=C(c2cc(C)ccc2C)C(=O)N[C@]12CC[C@@H](OC)CC2` [Spirotetramat] yielded a Mortality (Aphis gossypii; after 2 days, 5 mg ai/seed) of 0%.

In the case of `CN(Cc1ccc(Cl)nc1)C1=CC(=O)OC1` [4-{[(6-chloropyrid-3-yl)methyl](methyl)amino} furan-2(5H)-one], the Mortality (Myzus persicae; 0.025 mg ai/seed, infested ca. 35 days after germination) is reported as 40%, the Mortality (Aphis gossypii; after 2 days (head above the row), 0.01 mg ai/seed) is reported as 60% and the Mortality (Aphis gossypii; after 2 days, 0.025 mg ai/seed, infested 10 days after germination) is reported as 35%.

With `O=[N+]([O-])NC1=NCCN1Cc1ccc(Cl)nc1` [Imidacloprid] the Mortality (Aphis gossypii; after 3 days, 0.01 mg ai/seed) was 0%.
